Experimental data published in patent US11209440B2, “T cell balance gene expression, compositions of matters and methods of use thereof” (THE BROAD INSTITUTE, INC., priority 2014, dated 2021).
“Also recorded” adds a separate entry of the source.

Tests used:
[1] = molecular target: T1, Rorγt (Mus musculus, UniProt P51450); test: Dual luciferase reporter assay in EL4 cells stably transfected with Rorγt vector; assay type: cell-based; set-up: expressed in transfected cells; host or cells: EL4 cells, stably transfected; conditions: EL4 cells with Rorγt and CD5L vector; 5, 0.5, 0.05 μM titration
T1 sequence (P51450 1-495 isoform P51450-2): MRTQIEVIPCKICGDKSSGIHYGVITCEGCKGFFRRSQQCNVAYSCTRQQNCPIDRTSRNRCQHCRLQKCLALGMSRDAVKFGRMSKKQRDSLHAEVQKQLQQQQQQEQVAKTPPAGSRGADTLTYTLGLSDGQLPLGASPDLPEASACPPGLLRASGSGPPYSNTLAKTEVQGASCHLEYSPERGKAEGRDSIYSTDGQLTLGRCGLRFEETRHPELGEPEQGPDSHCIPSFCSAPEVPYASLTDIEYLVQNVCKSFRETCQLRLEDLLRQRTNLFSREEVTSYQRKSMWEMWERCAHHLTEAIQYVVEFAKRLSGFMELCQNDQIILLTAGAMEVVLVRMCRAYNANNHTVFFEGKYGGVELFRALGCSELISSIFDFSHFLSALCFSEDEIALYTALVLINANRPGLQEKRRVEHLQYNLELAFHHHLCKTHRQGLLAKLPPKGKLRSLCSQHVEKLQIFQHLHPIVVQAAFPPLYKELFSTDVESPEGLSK
Experimental: Lipidome analysis of Th17 cells. (A) WT and CD5L^−/− naïve T cells were differentiated as in FIG. 46B in the presence of cytokines as indicated. Cells and supernatant were harvested at 96 hours and subjected to MS/LC. Three independent mouse experiments were performed. […] (B) Expression of representative metabolites including a cholesterol ester and a PUFA-containing TAG species. FIG. 48 C, D, E, F-J show as follows: (C) Metabolomic analysis of independent mouse experiments where T cells were differentiated under various cytokine conditions as indicated and harvested at 48 h and 96 h. (D,E) Rorγt ChIP from Th17 cells differentiated as described in A. under various conditions as indicated. F-K. Dual luciferase reporter assay was performed in EL4 cells stably transfected with a control vector or Rorγt vector. (F, G) CD5L retroviral vector was cotransfected in F and G at 0, 25, 50 and 100 ng/well. […] All ChIP and luciferase assay are representative of at least 3 independent experiments.

[2] = tested on: Th17 cells; test: FACS of IL-17 and IL-23R.GFP in Th17 cells treated with free fatty acids; assay type: cell-based, mouse; conditions: 10 uM arachidonic acid or 20 uM palmitic acid, 48 h, FACS
Experimental: (§1) (A) Naïve T cells were sorted from either WT or IL-23RGFP reporter mice, activated with plate-bound anti-CD3/anti-CD28 and differentiated with TGFβ1+IL-6 for 48 hours. […] (B) Cells from WT and Rorc^−/− mice were sorted, differentiated and treated with FFA as in A. Cells were harvested for RNA purification and qPCR. (C) Naïve WT and CD5L^−/− T cells were differentiated as in A. Cells were then lifted, washed and replated in fresh media with no addition of cytokines and in the presence of control or 5 uM of arachidonic acid (PUFA). Cytokine profile of T cells were measured after PMA/ionomycin restimulation. […] Another 48 hours later, cells were harvested for nanostring analysis (D) or qPCR (E).

[3] = tested on: Th17 cells; test: qPCR and Nanostring signature analysis of Th17 cells treated with free fatty acids; assay type: cell-based, mouse
Experimental: as §1
Next, the contribution of lipid saturation to Th17 cell pathogenicity was studied.

[4] = tested on: EAE; test: EAE (experimental autoimmune encephalomyelitis) clinical scoring; assay type: in vivo, mouse; conditions: schematic of PROCR regulation (FIG. 26D)
Excerpt: FIGS. 26A-26D are a series of graphs and illustrations depicting that PROCR deficiency exacerbates EAE severity. FIG. 26A depicts frequency of CD4+ T cells expressing IL-17 and PROCR isolated from EAE mice 21d after immunization with MOG35-55. FIG. 26B depicts how EAE was induced by adoptive transfer of MOG35-55-specific 2D2 cells transduced with a control retrovirus (Ctl_GFP) or a PROCR-expression retrovirus (PROCR_RV) and differentiated into Th17 cells. Mean clinical scores and summaries for each group are shown. Results are representative of one of two experiments. FIG. 26C depicts how Rag1−/− mice were reconstituted with either PROCR-deficient (EPCR δ/δ→Rag1−/−) or WT T cells (WT→Rag1−/−) and immunized with MOG35-55 to induce EAE. The mean clinical score of each group is shown. Results are representative of one of two experiments. FIG. 26D depicts a schematic representation of PROCR regulation. Rorγt, IRF4, and STAT3 induce PROCR expression.
CyTOF and flow cytometry: Active induction of EAE and disease analysis: For active induction of EAE, mice were immunized by subcutaneous injection of 100 μg MOG (35-55) ([…]) (SEQ ID NO: 1395) in CFA, then received 200 ng pertussis toxin intraperitoneally (List Biological Laboratory) on days 0 and 2. […]

[5] = molecular target: T2, PROCR (Mus musculus, UniProt Q64695); test: Intracellular IFN-γ/IL-17 staining and IL-17 ELISA of Th17 cells differentiated with activated protein C; assay type: cell-based; conditions: aPC 300 nM; flow cytometry day 3, ELISA day 3 and 5
T2 construct: endogenous in cells; host or cells: primary naïve CD4+ T cells polarised to Th17 (TGF-β1 + IL-6)
T2 sequence (Q64695 18-242): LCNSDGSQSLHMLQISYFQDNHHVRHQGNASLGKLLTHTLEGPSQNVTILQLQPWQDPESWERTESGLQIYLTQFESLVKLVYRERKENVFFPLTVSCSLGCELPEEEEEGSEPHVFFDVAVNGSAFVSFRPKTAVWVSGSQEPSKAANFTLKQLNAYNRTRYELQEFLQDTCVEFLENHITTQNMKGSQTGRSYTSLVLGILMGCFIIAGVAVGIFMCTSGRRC
Experimental: FIG. 20A depicts how naïve CD4+ T cells were differentiated into Th17 cells by anti-CD3/anti-CD28 stimulation in the presence of activated protein C (aPC, 300 nM), the ligand of PROCR. On day 3, cells were stimulated with PMA and Ionomycin for 4 hr, stained intracellularly for IFN-γ and IL-17 and analyzed by flow cytometry. FIG. 20B depicts IL-17 production from Th17 cells (TGF-β+IL-6) differentiated with or without activated protein C (aPC and Ctl, respectively) was assessed by ELISA on Day 3 and 5. FIG. 20C depicts how naïve CD4+ T cells were polarized under Th17 conditions (TGF-β+IL-6), transduced with either GFP control retrovirus (Ctl RV) or PROCR-expressing retrovirus (PROCR RV). Intracellular expression of IFN-γ and IL-17 in GFP+ cells were assessed by flow cytometry. FIG. 20D depicts how naïve CD4+ T cells from EPCR δ/δ mice and control mice were polarized under Th17 conditions with TGF-β1 and IL-6. Intracellular expression of IFN-γ and IL-17 were assessed by flow cytometry.

[6] = molecular target: T2, PROCR; test: qRT-PCR of pathogenic/non-pathogenic signature genes in Th17 cells differentiated in the presence of activated protein C; assay type: cell-based
Excerpt: FIG. 23A depicts quantitative RT-PCR analysis of mRNA expression of several pathogenic signature genes in Th17 cells differentiated with TGFβ1 and IL-6 in the presence of activated protein C (aPC) for 3 days in vitro. FIG. 23B depicts quantitative RT-PCR analysis of mRNA expression of several pathogenic signature genes in naïve CD4^+ T cells polarized under Th17 conditions, transduced with either GFP control retrovirus (Control RV) or PROCR-expressing retrovirus (PROCR RV) for 3 days. FIG. 23C depicts quantitative RT-PCR analysis of mRNA expression of several pathogenic signature genes in Th17 cells from EPCR δ/δ mice and control mice differentiated with TGFβ1 and IL-6 for 3 days in vitro.
FIGS. 32A-32D are a series of graphs depicting how PROCR and PD-1 expression affects Th17 pathogenicity. FIG. 32A depicts signature genes of pathogenic and non-pathogenic Th17 cells. Naïve CD4+ T cells were differentiated into non-pathogenic (TGFβ1+IL-6) or pathogenic (TGFβ3+IL-6 or IL-β1+IL-6) Th17 cells and PROCR expression was determined by quantitative PCR. FIG. 32B depicts how naïve WT or PROCRd/d CD4+ T cells were stimulated under Th17 polarizing conditions (TGFβ1+IL-6) in the presence or absence of aPC. Quantitative expression of three pathogenic signature genes was determined on day 3. […] Mice were monitored for EAE. […] Mice were monitored for EAE.

CC(CO)CCC[C@@H](C)[C@H]1CC[C@H]2[C@@H]3C(O)C=C4C[C@@H](O)CC[C@]4(C)[C@H]3CC[C@]12C (stereo partly shown) [7, 27 dihydroxycholesterol, 7, 27-dihydroxycholesterol]
Il17 reporter transcription under CD5L-driven suppression [1]: rescued the CD5L-driven suppression

CCCCCCCCCCCCCCCC(=O)O [SFA, palmitic acid]
percentage of IL-23R.GFP+ CD4 T cells ([2]; IL-23RGFP reporter Th17 (TGFβ1+IL-6) expanded with IL-23): increased the expression of both IL-17 and IL-23R expression, but this effect was not significant | percentage of IL-17+ CD4 T cells ([2]; WT Th17 (TGFβ1+IL-6) expanded with IL-23): increased the expression of both IL-17 and IL-23R expression, but this effect was not significant | 316 gene signature of Th17 cell differentiation and function ([3]; WT Th17 cells (TGFβ1+IL-6), 25 uM palmitic acid, Nanostring nCounter): more similar to CD5L^−/− Th17 cells | Il22 expression ([3]; qPCR): increased | expression of key pathogenicity signature genes Il10, Il23r, Ccl5, Csf2 and Lag3 ([3]; qPCR): reciprocally regulated

B1: activated protein C: the ligand of PROCR (protein, UniProt P04070 200-461, looked up)
Vitamin K-dependent protein C …: DTEDQEDQVDPRLIDGKMTRRGDSPWQVVLLDSKKKLACGAVLIHPSWVLTAAHCMDESKKLLVRLGEYDLRRWEKWELDLDIKEVFVHPNYSKSTTDNDIALLHLAQPATLSQTIVPICLPDSGLAERELNQAGQETLVTGWGYHSSREKEAKRNRTFVLNFIKIPVVPHNECSEVMSNMVSENMLCAGILGDRQDACEGDSGGPMVASFHGTWFLVGLVSWGEGCGLLHNYGVYTKVSRYLDWIHGHIRDKEAPQKSWAP
modifications: Vitamin K-dependent protein C heavy chain activated two-chain form
notes: the ligand of PROCR
pathogenicity in EAE [4]: reduced pathogenicity | cytokine production (IFN-γ, IL-17) from Th17 cells [5]: not essential for cytokine production | mRNA expression of pathogenic signature genes in Th17 cells ([6]; Th17 cells differentiated with TGFβ1 and IL-6 in the presence of aPC for 3 days, quantitative RT-PCR): impairs some pathogenic signature genes; also recorded: downregulation of the pathogenic signature genes IL-3, CXCL3, CCL4 and Pdp; also recorded: decreased the expression of some of the genes | expression of non-pathogenic signature genes in Th17 cells ([6]; Th17 polarizing conditions (TGFβ1+IL-6) with aPC, day 3): induces some non-pathogenic signature genes
